The values below come from ChEMBL document CHEMBL1150707, “Isolation, structure, and synthesis of combretastatins A-1 and B-1, potent new inhibitors of microtubule assembly, derived from Combretum caffrum” (1987).

Assay [1] relates to P388. In words: In vivo cytotoxicity against mouse P388 cells. It counts as functional.
Assay [2] is described as follows: Inhibition of microtubule assembly by turbidimetry.
A short description of assay [3]: Displacement of [3H]colchicine from tubulin after 10 mins relative to control. Also on record: concentration or dose not given beside the values. Background: Loss of bound radioactivity is the signal in a displacement assay; it reports binding, not function.
In assay [4] the test system is P388. In words: In vivo cytotoxicity against mouse P388 cells assessed as increase in life extension at 2.75 to 11 mg/kg. The class given is functional. The settings on record: dose mg/kg 2.75-11.

Values after ≈ are worked out from the molar mass of the structure shown. Active and inactive are the calls of the source. No cut-off for these calls is given here.

For the compound `COc1cc(/C=C/c2ccc(OC)c(OC(C)=O)c2OC(C)=O)cc(OC)c1OC`, the ED50 in assay [1] came out at 12 µg/mL (≈ 28.8 µM).
In assay [2], `COc1cc2c(c(OC)c1OC)-c1cc3c(cc1[C@@H](OC(C)=O)C1COC(=O)[C@H]1C2)OCO3` (some centres not stated) had an ID50 of 6 µM. In assay [3], the Activity stood at 49%.
Taken in the same sequence, the figures for `COc1ccc(CCc2cc(OC)c(OC)c(OC)c2)c(O)c1O` were 3 µM and 13%.
Turning to `COc1cc2c(c(OC)c1OC)-c1ccc(OC)c(=O)cc1[C@@H](NC(C)=O)CC2`, the ID50 in assay [2] turned out to be 6 µM.
`COc1cc(/C=C\c2ccc(OC)c(O[Si](C)(C)C(C)(C)C)c2O[Si](C)(C)C(C)(C)C)cc(OC)c1OC`: the ED50 entry in assay [1] is “inactive”.
`COc1cc(/C=C\c2ccc(OC)c(OC(C)=O)c2OC(C)=O)cc(OC)c1OC` showed an ED50 in assay [1] of 2.7 µg/mL (≈ 6.48 µM).
Turning to `COc1cc(/C=C/c2ccc(OC)c(O[Si](C)(C)C(C)(C)C)c2O[Si](C)(C)C(C)(C)C)cc(OC)c1OC`, in assay [1], the ED50 result is “inactive”.
Take `COc1ccc(C[C@@H](O)c2cc(OC)c(OC)c(OC)c2)cc1O`: the ID50 in assay [2] stood at 11 µM. Further, the Activity in assay [3] came out at 34%.
As for `COc1ccc(/C=C\c2cc(OC)c(OC)c(OC)c2)c(O)c1O` [COMBRETASTATIN A-1], the ID50 in assay [2] worked out at 2 µM. The Activity worked out at 2.2% in assay [3] and 26% in assay [4]. This compound also came in with an ED50 in assay [1] of 0.99 µg/mL (≈ 2.98 µM).
In assay [2], `COc1cc([C@@H]2c3cc4c(cc3[C@H](O)[C@H]3COC(=O)[C@H]23)OCO4)cc(OC)c1OC` came in with an ID50 of 3 µM. The compound also registered an Activity in assay [3] of 13%.
